Measurements from ChEMBL document CHEMBL1177825, “Subtype-selectivity of metal-dependent methionine aminopeptidase inhibitors” (Bioorg Med Chem Lett, 2010).
Calls of active or inactive are those of the source. No cut-off for these calls is given here.

What was measured:
Escherichia coli = assay: Inhibition of Escherichia coli MetAP at 25 uM
Staphylococcus aureus = assay: Inhibition of Staphylococcus aureus MetAP at 25 uM
[1] = Inhibition of Staphylococcus aureus MetAP
[2] = Inhibition of Escherichia coli MetAP
[3] = target: Methionine aminopeptidase 1 (Homo sapiens, UniProt P53582); assay: Inhibition of human MetAP1
[4] = target: Methionine aminopeptidase 2 (Homo sapiens, UniProt P50579); assay: Inhibition of human MetAP2 expressed in baculovirus infected Sf9 cells
Chain of Methionine aminopeptidase 2 (P50579 whole entry): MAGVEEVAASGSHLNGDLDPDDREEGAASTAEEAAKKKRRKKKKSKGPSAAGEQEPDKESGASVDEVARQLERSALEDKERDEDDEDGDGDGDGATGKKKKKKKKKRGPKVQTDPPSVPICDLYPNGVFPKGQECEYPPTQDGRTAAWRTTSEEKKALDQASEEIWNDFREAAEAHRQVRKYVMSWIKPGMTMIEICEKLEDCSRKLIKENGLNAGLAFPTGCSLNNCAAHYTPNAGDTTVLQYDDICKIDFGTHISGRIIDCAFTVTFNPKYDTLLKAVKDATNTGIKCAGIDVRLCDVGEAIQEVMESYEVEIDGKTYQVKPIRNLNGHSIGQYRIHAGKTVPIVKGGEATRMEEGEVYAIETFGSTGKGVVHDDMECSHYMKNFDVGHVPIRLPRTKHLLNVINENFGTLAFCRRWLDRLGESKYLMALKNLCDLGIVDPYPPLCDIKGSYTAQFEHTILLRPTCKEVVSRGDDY

| SMILES | inhibition (Escherichia coli) | inhibition (Staphylococcus aureus) | IC50 [1] [µM] | IC50 [2] [nM] | IC50 [3] [µM] | IC50 [4] [µM] |
| --- | --- | --- | --- | --- | --- | --- |
| O=S(=O)(Oc1cccc2cccnc12)c1ccccn1 | 38% | inactive |  |  |  |  |
| c1ccc(-c2nc3ncc[nH]c-3n2)nc1 |  | 51% | 22 | 240 |  |  |
| c1cc2nc(-c3cscn3)[nH]c2cn1 |  |  |  |  | 19 |  |
| c1coc(-c2nc3ccccc3[nH]2)c1 | 26% | 10% |  |  |  |  |
| Cc1ccc2[nH]c(-c3ccccn3)nc2c1 |  |  |  |  |  | 7.7 |
| O=S(=O)(Nc1cccc2cccnc12)c1ccccc1 | 93% | 47% | 22.9 | 11000 |  | 39.8 |
| CCCSc1ccc2[nH]c(NC(=O)OC)nc2c1 | 35% | 10.5% |  |  |  |  |
| Oc1ccccc1-c1nc2ccccc2[nH]1 | 66% | 12% |  |  |  |  |
| Fc1ccc2nc(-c3ccccn3)[nH]c2c1 |  | 31% | 40.1 | 1500 |  |  |
| Cc1cc2nc(-c3ccccn3)[nH]c2cc1C |  | 87% | 17.9 | 2400 |  |  |
| COC(=O)Nc1nc2cc(Sc3ccccc3)ccc2[nH]1 | inactive | 12.5% |  |  |  |  |
| CC(C)(C)c1ccc2[nH]c(-c3cscn3)nc2c1 |  | 30.2% | 41.7 | 3900 |  |  |
| Cc1ccc(S(=O)(=O)Oc2cccc3cccnc23)cc1 | inactive | inactive |  |  |  |  |
| c1ccc2[nH]c(-c3cnccn3)nc2c1 |  | inactive |  | 4600 |  |  |
| O=[N+]([O-])c1ccc2nc(-c3cscn3)[nH]c2c1 |  |  |  |  | 48.5 |  |
| Oc1cccc2cccnc12 [OXYQUINOLINE] | 95% | 65% | 18.3 | 770 | 21.5 | 5.6 |
| Clc1ccc2nc(-c3ccccn3)[nH]c2c1 |  | 16% |  | 1700 |  |  |
| Oc1cccc(-c2nc3ccccc3[nH]2)n1 |  | 47% | 29.2 | 1300 |  |  |
| c1ccc(-c2nc3ccc[nH]c-3n2)nc1 |  | 76% | 18.8 | 110 |  |  |
| c1cncc(-c2nc3ccccc3[nH]2)c1 | inactive | 20% |  |  |  |  |
| Nc1ccc2nc(-c3ccccn3)[nH]c2c1 |  |  |  |  |  | 9.3 |
| c1cnc2nc(-c3nccs3)[nH]c2c1 |  | 21% |  | 80 |  |  |
| COC(=O)Nc1nc2cc(C(=O)c3ccccc3)ccc2[nH]1 | 47% | inactive |  |  |  |  |
| N#Cc1ccc2[nH]c(-c3ccccn3)nc2c1 |  | 29% | 33 | 430 |  |  |
| c1ccc(-c2nc3cc[nH]cc-3n2)nc1 |  | 55% | 22.8 | 550 |  |  |

| SMILES | inhibition (Escherichia coli) | inhibition (Staphylococcus aureus) | IC50 [1] [µM] | IC50 [2] [nM] | IC50 [3] [µM] | IC50 [4] [µM] |
| --- | --- | --- | --- | --- | --- | --- |
| O=S(=O)(Oc1cccc2cccnc12)c1ccccc1 | inactive | 62% | 16 |  |  |  |
| Nc1ccc2[nH]c(-c3ccccn3)nc2c1 |  | 92% | 4.9 | 970 |  |  |
| O=C(Nc1cccc2cccnc12)c1ccccc1 | inactive | inactive |  |  |  |  |
| c1ccc(-c2nc3ccccc3[nH]2)nc1 |  | 56% | 19.9 | 570 | 28.4 | 13.3 |
| CC(C)(C)c1ccc2[nH]c(-c3ccccn3)nc2c1 |  | 40.9% | 38.9 | 2600 |  |  |
| N/C(S)=N/c1nc2ccccc2[nH]1 |  | 31% | 35.9 | 9000 |  |  |
| c1ccc2[nH]c(-c3cscn3)nc2c1 [THIABENDAZOLE] | 86.3% | 28% |  | 470 | 47.8 | 44.7 |
| Clc1ccc2[nH]c(-c3cscn3)nc2c1 |  | 15% |  | 5200 |  |  |
| c1ccc(-c2nc3c[nH]cnc-3n2)nc1 |  | 18% |  | 380 |  |  |
| O=C(Oc1cccc2cccnc12)c1ccccc1 [BENZOXIQUINE] | 32% | 10% |  |  |  | 34.8 |
| c1ccc2[nH]c(Nc3nccs3)nc2c1 |  | 52% | 22.4 | 540 |  |  |
| Cc1cc(NC(=O)c2ccccn2)no1 | 80% | 20% |  | 2800 |  |  |
| Nc1ccc2[nH]c(-c3cscn3)nc2c1 |  | 92% | 2.3 | 3400 |  |  |
| O=C(Nc1nccs1)c1ccc([N+](=O)[O-])cc1 | inactive | inactive |  |  |  |  |
| Cc1cc2nc(-c3cscn3)[nH]c2cc1C |  | 17% |  | 10000 |  |  |
| c1cc2[nH]c(-c3cscn3)nc2cn1 |  | 32% | 45.5 | 1700 |  |  |
| O=S(=O)(Nc1nccs1)c1ccccn1 | 23% |  |  |  |  |  |
| COC(=O)Nc1nc2ccccc2[nH]1 | 34% | inactive |  |  |  |  |
| Cc1cc(NS(=O)(=O)c2ccccn2)no1 | 21% | inactive |  |  |  |  |
| O=C(Nc1nccs1)c1ccccn1 | 100% | 58% | 21.2 | 60 | 8.1 | 25.8 |
| c1ccc(Cn2c(-c3ccccn3)nc3ccccc32)cc1 |  | inactive |  | 990 |  |  |
| O=[N+]([O-])c1ccc2[nH]c(-c3ccccn3)nc2c1 |  | inactive |  | 160 | 28.8 |  |
| Cc1ccc2nc(-c3ccccn3)[nH]c2c1 |  | 68% | 19.4 | 2100 |  |  |
| c1csc(-c2nc3ccccc3[nH]2)c1 | inactive | inactive |  |  |  |  |
| Oc1cccnc1-c1nc2ccccc2[nH]1 |  | 97% | 4.4 | 780 |  |  |
